Measured values: patent US9499466B2, “Diene-based carboxylate anion and salt thereof, and polymerizable or curable composition thereof” (NIPPON SHOKUBAI CO., LTD., priority 2010, dated 2016)

Key:
[1] = Adhesion of cured material to PET film (cross-cut method, JIS K 5600-5-6); details: UV-cured film on surface-untreated PET film, cross-cut 10×10
Protocol: Each compound shown in Table 11 was formed into a UV-cured film on a PET film in the same manner as in the pencil hardness test, except that the PET film used as a substrate was a surface-untreated polyethylene terephthalate (PET) film (Lumirror L-50T60, produced by Toray Industries, Inc.).
The adhesion of the UV-cured film to the PET film was evaluated based on JIS K 5600-5-6 (cross-cut method). The number of divided segments was 10×10 segments=100 segments. The adhesion was evaluated by the number of the segments which remain without peeling or damage in 100 segments.

[2] = Solubility test (dissolution method); details: for Solubility (dissolution method) Water: mixed at 1%, 3%, 5%, 10%, 20% or more
Excerpt: The solubility evaluation by the dissolution method requires complicated operations and a large amount of test sample. Therefore, this test is not suitable for screening. However, the solubility of each compound can be more accurately evaluated.

[3] = Solubility test (film-forming method); details: solvent dropped on film on glass plate; Water
Protocol: Each compound was applied on a glass plate and the glass plate was leaned against the wall. Each solvent shown in Table 5 was dropped (5 to 6 drops) on the glass plate with a pasteur pipette. The glass plate was visually observed after the dropped solvent was dried, the surface was optionally rubbed with a spatula, and the solubility (film-forming method) was evaluated according to the criteria shown in Table 4.

SMILES	Adhesion (segments remaining without peeling or damage in 100 segments) [1]	Solubility (dissolution method) Acetone [2]	Solubility (dissolution method) Acetonitrile [2]	Solubility (dissolution method) Ethyl acetate [2]	Solubility (dissolution method) Methanol [2]	Solubility (dissolution method) THF [2]	Solubility (dissolution method) Toluene [2]	Solubility (dissolution method) Water [2]	Solubility (film-forming method) Water [3]
C=CC(=O)OCC(CC)(COC(=O)C=C)COC(=O)C=C [TMPTA, reference compound]	71/100	◯◯ (Become uniform and transparent at a compound concentration of 20% or more)	◯◯ (Become uniform and transparent at a compound concentration of 20% or more)	◯◯ (Become uniform and transparent at a compound concentration of 20% or more)	◯◯ (Become uniform and transparent at a compound concentration of 20% or more)	◯◯ (Become uniform and transparent at a compound concentration of 20% or more)	◯◯ (Become uniform and transparent at a compound concentration of 20% or more)	X (Not become uniform and transparent even at a compound concentration of 1%)	–
C=CC(=O)OCCOCCOC(=O)C=C [DEGDA, reference compound]	32/100	◯◯ (Become uniform and transparent at a compound concentration of 20% or more)	◯◯ (Become uniform and transparent at a compound concentration of 20% or more)	◯◯ (Become uniform and transparent at a compound concentration of 20% or more)	◯◯ (Become uniform and transparent at a compound concentration of 20% or more)	◯◯ (Become uniform and transparent at a compound concentration of 20% or more)	◯◯ (Become uniform and transparent at a compound concentration of 20% or more)	X-Δ (Become uniform and transparent at a compound concentration of 1%)	–
C=CCOCC(=C)C(=O)[O-].C=CCOCC(=C)C(=O)[O-].[O]=[Zr+2] [ZrO(AMA)2]	100/100	◯◯ (Become uniform and transparent at a compound concentration of 20% or more)	◯◯ (Become uniform and transparent at a compound concentration of 20% or more)	◯◯ (Become uniform and transparent at a compound concentration of 20% or more)	◯◯ (Become uniform and transparent at a compound concentration of 20% or more)	◯◯ (Become uniform and transparent at a compound concentration of 20% or more)	◯◯ (Become uniform and transparent at a compound concentration of 20% or more)	X (Not become uniform and transparent even at a compound concentration of 1%)	–
C=CCOCC(=C)C(=O)[O-].C=CCOCC(=C)C(=O)[O-].[Zn+2] [Zn(AMA)2]	100/100	–	–	–	–	–	–	–	X-Δ
